# According to publication PMC4619332, “Targeting type-2 metabotropic glutamate receptors to protect vulnerable hippocampal neurons against ischemic damage” (Molecular Brain, 2015):
# pIC50: −log10 of the molar value.
# Biological target: T1, mGlu3 receptor (Homo sapiens, UniProt Q14832)
# T1 construct: gene GRM3; recombinant receptor stably expressed in HEK293 cells
# Test: FLIPR Ca2+ mobilization, antagonist mode at glutamate EC80
# Type: cell-based
# From the text: FLIPR Ca2+ mobilization, antagonist mode [NT]
# T1 sequence (Q14832 23-879): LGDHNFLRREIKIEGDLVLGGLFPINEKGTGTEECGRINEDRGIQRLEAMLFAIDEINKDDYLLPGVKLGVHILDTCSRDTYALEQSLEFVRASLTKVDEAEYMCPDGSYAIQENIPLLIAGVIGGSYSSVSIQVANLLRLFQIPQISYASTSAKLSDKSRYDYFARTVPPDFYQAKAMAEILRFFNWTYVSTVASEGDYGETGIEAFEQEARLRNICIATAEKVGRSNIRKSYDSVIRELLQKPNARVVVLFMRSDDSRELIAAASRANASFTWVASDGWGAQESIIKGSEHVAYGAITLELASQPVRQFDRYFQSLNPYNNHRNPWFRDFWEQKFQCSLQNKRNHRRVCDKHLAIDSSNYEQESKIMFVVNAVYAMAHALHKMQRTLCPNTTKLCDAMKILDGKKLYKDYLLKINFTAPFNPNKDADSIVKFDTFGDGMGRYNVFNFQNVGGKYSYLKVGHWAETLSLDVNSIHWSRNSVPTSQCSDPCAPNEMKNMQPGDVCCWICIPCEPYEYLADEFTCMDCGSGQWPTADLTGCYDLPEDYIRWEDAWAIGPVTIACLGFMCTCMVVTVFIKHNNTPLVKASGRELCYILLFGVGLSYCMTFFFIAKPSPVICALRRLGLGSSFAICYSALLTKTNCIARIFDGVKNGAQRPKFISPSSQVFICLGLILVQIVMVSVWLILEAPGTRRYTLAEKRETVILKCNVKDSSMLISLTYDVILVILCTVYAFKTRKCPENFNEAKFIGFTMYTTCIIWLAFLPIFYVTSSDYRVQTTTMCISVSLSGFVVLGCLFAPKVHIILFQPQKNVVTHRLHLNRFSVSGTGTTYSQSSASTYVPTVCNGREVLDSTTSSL
substance,measurement,value
ADX92639,pIC50,4.76
